According to patent US20260199367A1, “PLK1 DEGRADATION INDUCING COMPOUNDS WITH INCREASED RIGIDITY” (UPPTHERA, INC., priority 2022, published 2026):

Legend:
Type in all cases: cell-based
[1] = biological target: T1, PLK1 (Homo sapiens, UniProt P53350); assay: Luciferase assay for PLK1 in HeLa LgBit (PLK1-HiBit KI) cell line; conditions: released after thymidine block, compound 300 nM, luminescence after 9 hours
T1 construct: endogenous in cells; host or cells: HeLa LgBit (PLK1-HiBit KI): HeLa cells stably expressing LgBit, with CRISPR/Cas9 knock-in of HiBit at the endogenous PLK1 locus
Protocol: A HeLa cell line in which the LgBit vector was transfected and expressed stably was prepared. Then, after constructing gRNA and donor to express the HiBit amino acid sequence behind the C-terminal of the PLK1 gene, which was inherent in the cell, it was inserted into the cell together with a vector capable of expressing CRISPR/Cas9. Only the cells in which the insertion was completed and knock-in had progressed were selected, sub-cultured and used.
The compounds of Examples were completely dissolved in DMSO (Sigma-Aldrich Cat. No. D2438, Lot. No. RNBL5438) and used in the experiment.
In the case of HeLa LgBit (Plk1-HiBit KI), the compounds were treated after being released after thymidine block, and the process was as follows. Thymidine (Sigma-Aldrich Cat. No. T9250-5G) was completely dissolved in ddH2O and used in the experiment. For thymidine block, the products were treated with 2 mM of thymidine and then incubated for 24 hours. For release and chemical treatment, the medium was suctioned and washed with 1×PBS. TrypLE™ was added and incubated in 37° C. CO2 incubator (Thermo Fisher Science, Cat. No. 4111) for 5 mins. Cells neutralized by adding complete media were counted through a counter. For each well of a 96-well culture plate (SPL), 3.3×10^4 cells and a total medium volume of 150 μl were seeded and incubated in a CO2 incubator.
Each cell line was incubated in a CO2 incubator for 18 hours, and Endurazine (Promega, Cat. No. N257B) was added to each well to make up 4% of the total volume. After adding compounds of Examples in a 96-well white plate (SPL) to a concentration of 300 nM, the wavelength of the plate reader (BMG Labtech, CLARIOstar Plus) was set to 470-480 nM, and then the luminescence was tracked in real time.

[2] = tested on: NCI-H526 (H526) cell line; assay: Cell viability assay for NCI-H526 cell line; conditions: Homo sapiens, NCI-H526, 120 h, 5 days, EZ-Cytox, 0.46-3000 nM
Source text: (§1) The NCI-H69 (hereafter H69) and NCI-H526 (hereafter H526) cell lines were purchased from Korea Cell Line Bank (KCLB, Seoul, Korea). For cell culture, RPMI 1640 (Gibco, Cat. No. 22400-089; Lot. No. 2537146), FBS (Gibco, Cat. No. 16000-044; Lot. No. 2511328P), Penicillin/Streptomycin (PS) (Gibco, Cat. No. 15140-122; Lot. No. 2441887), 75T cell culture flask (SPL, Cat. No. 71075), 175T cell culture flask (SPL, Cat. No. 71175), 96-well cell culture plate (SPL, Cat. No. 30096), PBS pH 7.4 (Gibco, Cat. No. 10010-023; Lot. No. 2509235), TrypLE™ Express (Gibco, Cat. No. 12605-010; Lot. No. 2323417), Cell Counter (Hematocytometer)(As one, Cat. No. 4-458-01), and 0.4% Trypan Blue Solution (DYNEBIO, Cat. No. CBT3710; Lot. No. 20221111) were used.
(§2) The compounds of Examples were completely dissolved in DMSO (Sigma-Aldrich Cat. No. D2438, Lot. No. RNBL7287) and used in the experiment. 3×10^4 cells were seeded for each well of a 96-well plate (SPL), and the cells were cultured in total volume of 150 μl. Each compound was diluted 3-folds from the highest concentration of 3000 nM to the lowest concentration of 0.46 nM. After treating the compound to each well to make the total volume of 200 μl, it was cultured in a CO2 incubator (Thermo Fisher Science, Cat. No. 4111) for 5 days. Then, after treating EZ-Cytox (DOGEN, Cat.NO. EZ-3000, Lot. No. DLS2308) 20 μl in each well, it was cultured in CO2 incubator for 4 hours. The absorbance of the completely cultured sample was measured by setting the wavelength of a plate reader (BMG Labtech, CLARIOstar Plus) to […], and was measured after shaking for 3 minutes in a plate reader before measurement.
(§3) (A: IC50 is less than 20 nM, B: IC50 is 50 nM or less, C: IC50 is 100 nM or less)

[3] = tested on: NCI-H69 (H69) cell line; assay: Cell viability assay for NCI-H69 cell line; conditions: Homo sapiens, NCI-H69, 120 h, 5 days, EZ-Cytox, 0.46-3000 nM
Source text: as §1, §2, §3

T1 sequence (P53350 whole entry): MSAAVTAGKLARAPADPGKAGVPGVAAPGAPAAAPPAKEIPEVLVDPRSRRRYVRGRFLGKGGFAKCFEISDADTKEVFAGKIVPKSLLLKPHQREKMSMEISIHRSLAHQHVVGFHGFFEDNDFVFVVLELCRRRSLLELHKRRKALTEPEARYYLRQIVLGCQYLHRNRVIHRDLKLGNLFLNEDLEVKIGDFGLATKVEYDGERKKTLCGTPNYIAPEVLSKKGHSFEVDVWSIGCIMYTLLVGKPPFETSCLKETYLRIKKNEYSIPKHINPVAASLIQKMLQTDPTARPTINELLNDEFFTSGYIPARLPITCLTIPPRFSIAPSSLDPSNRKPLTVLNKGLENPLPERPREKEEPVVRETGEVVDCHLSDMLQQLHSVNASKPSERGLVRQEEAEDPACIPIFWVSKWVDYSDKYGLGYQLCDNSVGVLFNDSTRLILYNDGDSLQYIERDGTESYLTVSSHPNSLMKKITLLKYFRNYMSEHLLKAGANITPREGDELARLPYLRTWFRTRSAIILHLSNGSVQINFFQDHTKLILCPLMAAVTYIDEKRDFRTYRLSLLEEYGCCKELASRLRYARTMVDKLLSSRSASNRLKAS

Row | Compound | Value (luminescence value, PLK1-HiBit) [1] | IC50 [2] | IC50 [3]
1 | CC[C@@H]1C(=O)N(C)c2cnc(Nc3ccc(C(=O)NC4CCN(C(=O)CCN5CCN(c6ccc(NC7CCC(=O)NC7=O)cc6)CC5)CC4)cc3OC)nc2N1C1CCCC1 (stereo partly drawn) [Compound 24, 4-(((R)-8-cyclopentyl-7-ethyl-5-methyl-6-oxo-5,6,7,8-tetrahydropteridin-2-yl)amino)-N-(1-(3-(4-(4-((2,6-dioxopiperidin-3-yl)amino)phenyl)piperazin-1-yl)propanoyl)piperidin-4-yl)-3-methoxybenzamide] | 0.206 | < 20 nM | < 20 nM
2 | CC[C@@H]1C(=O)N(C)c2cnc(Nc3ccc(C(=O)NC4CCC(N5CCN(CCc6ccc(NC7CCC(=O)NC7=O)cc6)CC5)CC4)cc3OC)nc2N1C1CCCC1 (stereo partly drawn) [Compound 4, 4-(((R)-8-cyclopentyl-7-ethyl-5-methyl-6-oxo-5,6,7,8-tetrahydropteridin-2-yl)amino)-N-((1r,4R)-4-(4-(4-((2,6-dioxopiperidin-3-yl)amino)phenethyl)piperazin-1-yl)cyclohexyl)-3-methoxybenzamide] | 0.157 | < 20 nM | < 20 nM
3 | CC[C@@H]1C(=O)N(C)c2cnc(Nc3ccc(-c4nnc(CNC5CCC(NCC6CCN(c7ccc(C8CCC(=O)NC8=O)cc7F)CC6)CC5)o4)cc3OC)nc2N1C1CCCC1 (stereo partly drawn) [Compound 17, 3-(4-(4-((((1r,4r)-4-(((5-(4-(((R)-8-cyclopentyl-7-ethyl-5-methyl-6-oxo-5,6,7,8-tetrahydropteridin-2-yl)amino)-3-methoxyphenyl)-1,3,4-oxadiazol-2-yl)methyl)amino)cyclohexyl)amino)methyl)piperidin-1-yl)-3-fluorophenyl)piperidine-2,6-dione] | 0.172 | < 20 nM | ≤ 50 nM
4 | CC[C@@H]1C(=O)N(C)c2cnc(Nc3ccc(C(=O)NC4CCC(N5CCN(CCCc6ccc(NC7CCC(=O)NC7=O)cc6)CC5)CC4)cc3OC)nc2N1C1CCCC1 (stereo partly drawn) [Compound 3, 4-(((R)-8-cyclopentyl-7-ethyl-5-methyl-6-oxo-5,6,7,8-tetrahydropteridin-2-yl)amino)-N-((1r,4R)-4-(4-(3-(4-((2,6-dioxopiperidin-3-yl)amino)phenyl)propyl)piperazin-1-yl)cyclohexyl)-3-methoxybenzamide] | 0.253 | < 20 nM | < 20 nM
5 | CC[C@@H]1C(=O)N(C)c2cnc(Nc3ccc(C(=O)NN4CCC(C5CCN(CCc6ccc(C7CCC(=O)NC7=O)cc6)CC5)CC4)cc3OC)nc2N1C1CCCC1 (stereo partly drawn) [Compound 23, 4-(((R)-8-cyclopentyl-7-ethyl-5-methyl-6-oxo-5,6,7,8-tetrahydropteridin-2-yl)amino)-N-(1′-(4-(2,6-dioxopiperidin-3-yl)phenethyl)-[4,4′-bipiperidin]-1-yl)-3-methoxy benzamide] | 0.186 | < 20 nM | < 20 nM
6 | COc1cc(C(=O)NC2CCN(C(=O)CCN3CCN(c4ccc(NC5CCC(=O)NC5=O)cc4F)CC3)CC2)ccc1Nc1ncc2c(n1)N(C1CCCC1)CC(F)(F)C(=O)N2C (stereo not drawn) [Compound 26, 4-((9-cyclopentyl-7,7-difluoro-5-methyl-6-oxo-6,7,8,9-tetrahydro-5H-pyrimido[4,5-b][1,4]diazepin-2-yl)amino)-N-(1-(3-(4-(4-((2,6-dioxopiperidin-3-yl)amino)-2-fluorophenyl)piperazin-1-yl)propanoyl)piperidin-4-yl)-3-methoxybenzamide] | 0.269 | < 20 nM | ≤ 50 nM
7 | CC[C@@H]1C(=O)N(C)c2cnc(Nc3ccc(-c4nnc(CNC5CCC(N6CCC(NCc7ccc(C8CCC(=O)NC8=O)cc7)CC6)CC5)o4)cc3OC)nc2N1C1CCCC1 (stereo partly drawn) [Compound 16, 3-(4-(((1-((1r,4r)-4-(((5-(4-(((R)-8-cyclopentyl-7-ethyl-5-methyl-6-oxo-5,6,7,8-tetrahydropteridin-2-yl)amino)-3-methoxyphenyl)-1,3,4-oxadiazol-2-yl)methyl)amino)cyclohexyl)piperidin-4-yl)amino)methyl)phenyl)piperidine-2,6-dione] | 0.263 | ≤ 50 nM | ≤ 100 nM
8 | CC[C@@H]1C(=O)N(C)c2cnc(Nc3ccc(C(=O)NC4CCC(N5CCN(CCNc6cccc7c6CN(C6CCC(=O)NC6=O)C7=O)CC5)CC4)cc3OC)nc2N1C1CCCC1 (stereo partly drawn) [Compound 5, 4-(((R)-8-cyclopentyl-7-ethyl-5-methyl-6-oxo-5,6,7,8-tetrahydropteridin-2-yl)amino)-N-((1r,4R)-4-(4-(2-((2-(2,6-dioxopiperidin-3-yl)-1-oxoisoindolin-4-yl)amino)ethyl)piperazin-1-yl)cyclohexyl)-3-methoxybenzamide] | 0.376 | < 20 nM | < 20 nM
9 | CC[C@@H]1C(=O)N(C)c2cnc(Nc3ccc(C(=O)NC4CCC(N5CCN(CCNc6ccc(C7CCC(=O)NC7=O)cc6)CC5)CC4)cc3OC)nc2N1C1CCCC1 (stereo partly drawn) [Compound 1, 4-(((R)-8-cyclopentyl-7-ethyl-5-methyl-6-oxo-5,6,7,8-tetrahydropteridin-2-yl)amino)-N-((1r,4R)-4-(4-(2-((4-(2,6-dioxopiperidin-3-yl)phenyl)amino)ethyl)piperazin-1-yl)cyclohexyl)-3-methoxybenzamide] | 0.139 | < 20 nM | < 20 nM
10 | CC[C@@H]1C(=O)N(C)c2cnc(Nc3ccc(C(=O)NC4CCC(N5CCC(CNc6cccc7c6CN(C6CCC(=O)NC6=O)C7=O)CC5)CC4)cc3OC)nc2N1C1CCCC1 (stereo partly drawn) [Compound 6, 4-(((R)-8-cyclopentyl-7-ethyl-5-methyl-6-oxo-5,6,7,8-tetrahydropteridin-2-yl)amino)-N-((1r,4R)-4-(4-(((2-(2,6-dioxopiperidin-3-yl)-1-oxoisoindolin-4-yl)amino)methyl)piperidin-1-yl)cyclohexyl)-3-methoxybenzamide] | 0.286 | < 20 nM | ≤ 50 nM
11 | CC[C@@H]1C(=O)N(C)c2cnc(Nc3ccc(C(=O)NC4CCC(N5CCC(NCc6ccc(C7CCC(=O)NC7=O)cc6)CC5)CC4)cc3OC)nc2N1C1CCCC1 (stereo partly drawn) [Compound 8, 4-(((R)-8-cyclopentyl-7-ethyl-5-methyl-6-oxo-5,6,7,8-tetrahydropteridin-2-yl)amino)-N-((1r,4R)-4-(4-((4-(2,6-dioxopiperidin-3-yl)benzyl)amino)piperidin-1-yl)cyclohexyl)-3-methoxybenzamide] | 0.279 | < 20 nM | < 20 nM
12 | CC[C@@H]1C(=O)N(C)c2cnc(Nc3ccc(C(=O)NC4CCN(C(=O)C(N)CN5CCN(c6ccc(C7CCC(=O)NC7=O)cc6)CC5)CC4)cc3OC(F)(F)F)nc2N1C1CCCC1 (stereo partly drawn) [Compound 10, N-(1-(2-amino-3-(4-(4-(2,6-dioxopiperidin-3-yl)phenyl)piperazin-1-yl)propanoyl)piperidin-4-yl)-4-(((R)-8-cyclopentyl-7-ethyl-5-methyl-6-oxo-5,6,7,8-tetrahydropteridin-2-yl)amino)-3-(trifluoromethoxy)benzamide] | 0.282 | ≤ 50 nM | ≤ 100 nM
